Measurements reported in patent US10577368B2 (The United States of America, as represented by the …, priority 2013, dated 2020).
Values joined by “and” are separate entries in the source; they are usually repeats but may differ in a detail not shown here. Identical values can stand only once. Like-named read-outs stand apart in the source and are kept apart here.

Legend:
hA1AR = hA1AR (Homo sapiens (Human), UniProt P30542); assay: Radioligand binding at hA1AR, CHO cell membranes, [3H]R-PIA; conditions: read-out: hA1AR % inhibition
hA1AR, sequence (P30542 whole entry): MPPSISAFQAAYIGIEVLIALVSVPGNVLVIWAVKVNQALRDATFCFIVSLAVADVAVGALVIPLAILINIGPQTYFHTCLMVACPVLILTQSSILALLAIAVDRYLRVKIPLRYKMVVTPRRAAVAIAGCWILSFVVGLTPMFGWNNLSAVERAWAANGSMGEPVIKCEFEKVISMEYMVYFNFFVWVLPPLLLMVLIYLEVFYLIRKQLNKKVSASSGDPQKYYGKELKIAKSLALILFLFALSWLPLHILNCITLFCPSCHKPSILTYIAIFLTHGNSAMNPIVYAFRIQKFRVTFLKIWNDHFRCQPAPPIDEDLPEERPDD

hA2AAR = hA2AAR (Homo sapiens (Human), UniProt P29274); assay: Radioligand binding at hA2AAR, HEK293 cell membranes, [3H]CGS21680; conditions: read-out: hA2AAR % inhibition
hA2AAR, sequence (P29274 whole entry): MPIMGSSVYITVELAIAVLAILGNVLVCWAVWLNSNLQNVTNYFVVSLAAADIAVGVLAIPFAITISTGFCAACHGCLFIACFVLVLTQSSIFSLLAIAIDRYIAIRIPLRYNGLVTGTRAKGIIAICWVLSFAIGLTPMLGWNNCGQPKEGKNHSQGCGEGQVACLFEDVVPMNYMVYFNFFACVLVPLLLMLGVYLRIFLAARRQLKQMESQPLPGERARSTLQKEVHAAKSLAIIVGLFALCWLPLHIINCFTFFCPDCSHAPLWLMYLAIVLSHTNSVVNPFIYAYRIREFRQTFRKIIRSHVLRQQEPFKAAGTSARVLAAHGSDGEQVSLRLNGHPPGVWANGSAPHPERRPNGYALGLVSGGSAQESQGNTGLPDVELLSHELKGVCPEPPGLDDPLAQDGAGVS

hA3AR = hA3AR (Homo sapiens (Human), UniProt P0DMS8); assay: Radioligand binding at hA3AR, CHO cell membranes, [125I]I-AB-MECA
mA3AR = mA3AR (Mus musculus (Mouse), UniProt Q61618); assay: Competition binding at mA3AR, HEK293 cell membranes
mA3AR, sequence (Q61618 whole entry): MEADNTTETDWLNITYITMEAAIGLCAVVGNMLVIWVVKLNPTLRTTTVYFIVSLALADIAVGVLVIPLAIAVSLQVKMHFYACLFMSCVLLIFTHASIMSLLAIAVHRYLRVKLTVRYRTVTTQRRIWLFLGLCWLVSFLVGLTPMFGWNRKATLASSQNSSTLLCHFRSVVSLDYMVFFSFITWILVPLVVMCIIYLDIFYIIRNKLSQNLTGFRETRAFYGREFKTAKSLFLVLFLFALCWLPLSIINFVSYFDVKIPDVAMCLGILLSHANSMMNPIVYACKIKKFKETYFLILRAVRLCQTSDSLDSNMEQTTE

[1] = tested on: chronic constriction injury (CCI) model, mechano-allodynia; assay: Morphine analgesic tolerance in CCI model, co-administration with A3AR agonist; type: in vivo, mice
morphine-dependent rats = conditions: naloxone-precipitated withdrawal in morphine-dependent rats; cited from earlier work
[2] = target: Alpha 2B adrenergic receptor (Homo sapiens (Human), UniProt P18089); assay: Off-target binding, α2B
Alpha 2B adrenergic receptor, sequence (P18089 whole entry): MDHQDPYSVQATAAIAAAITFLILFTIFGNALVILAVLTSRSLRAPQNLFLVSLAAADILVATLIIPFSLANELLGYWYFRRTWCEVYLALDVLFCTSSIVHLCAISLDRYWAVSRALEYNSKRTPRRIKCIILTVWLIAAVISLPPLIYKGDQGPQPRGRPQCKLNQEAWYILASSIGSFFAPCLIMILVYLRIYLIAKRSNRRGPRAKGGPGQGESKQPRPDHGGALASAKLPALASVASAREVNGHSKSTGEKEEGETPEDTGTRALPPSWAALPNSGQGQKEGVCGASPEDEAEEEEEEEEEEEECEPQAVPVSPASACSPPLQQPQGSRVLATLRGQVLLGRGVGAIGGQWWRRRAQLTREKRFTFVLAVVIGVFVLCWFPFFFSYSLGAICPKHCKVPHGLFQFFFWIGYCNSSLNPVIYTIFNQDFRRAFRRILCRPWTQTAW
Description: (§1) The results are set forth below.

[3] = target: Alpha 2C adrenergic receptor (Homo sapiens (Human), UniProt P18825); assay: Off-target binding, α2C
Description: as §1

[4] = target: h Beta 3 adrenergic receptor (Homo sapiens (Human), UniProt P13945); assay: Off-target binding, β3
h5HT1A = h5HT1A (Homo sapiens (Human), UniProt P08908); assay: Off-target binding, 5HT1A
h5HT2B = h5HT2B (Homo sapiens (Human), UniProt P41595); assay: Off-target binding, 5HT2B
h5HT2B, sequence (P41595 whole entry): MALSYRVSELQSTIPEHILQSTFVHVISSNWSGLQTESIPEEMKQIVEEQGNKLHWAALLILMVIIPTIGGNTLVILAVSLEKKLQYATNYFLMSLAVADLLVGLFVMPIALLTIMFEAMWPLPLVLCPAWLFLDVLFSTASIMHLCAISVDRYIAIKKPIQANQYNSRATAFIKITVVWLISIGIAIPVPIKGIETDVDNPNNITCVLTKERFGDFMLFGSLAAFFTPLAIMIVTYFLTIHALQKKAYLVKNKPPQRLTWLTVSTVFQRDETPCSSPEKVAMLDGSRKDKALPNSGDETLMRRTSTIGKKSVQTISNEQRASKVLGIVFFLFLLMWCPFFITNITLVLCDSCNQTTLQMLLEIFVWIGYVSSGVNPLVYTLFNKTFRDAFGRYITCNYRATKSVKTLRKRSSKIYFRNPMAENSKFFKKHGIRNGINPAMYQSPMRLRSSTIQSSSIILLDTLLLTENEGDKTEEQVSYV

h5HT2C = h5HT2C (Homo sapiens, UniProt P28335); assay: Off-target binding, 5HT2C
h5HT2C, sequence (P28335 33-458 limits assumed): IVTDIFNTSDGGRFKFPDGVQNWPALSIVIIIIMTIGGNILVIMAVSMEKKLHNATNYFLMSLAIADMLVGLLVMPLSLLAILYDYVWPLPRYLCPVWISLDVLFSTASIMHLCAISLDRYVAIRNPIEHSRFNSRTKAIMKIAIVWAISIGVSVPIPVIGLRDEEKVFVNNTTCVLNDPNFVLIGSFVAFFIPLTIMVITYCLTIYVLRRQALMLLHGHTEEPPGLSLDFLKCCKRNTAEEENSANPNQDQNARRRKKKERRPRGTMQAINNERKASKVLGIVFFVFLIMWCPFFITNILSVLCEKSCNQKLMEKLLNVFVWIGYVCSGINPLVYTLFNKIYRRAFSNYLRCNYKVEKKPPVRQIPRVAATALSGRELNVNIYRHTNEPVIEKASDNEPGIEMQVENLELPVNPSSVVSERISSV

hH4 histamine receptor = hH4 histamine receptor (Homo sapiens (Human), UniProt Q9H3N8); assay: Off-target binding, H4
Description: as §1

hM2 muscarinic receptor = hM2 muscarinic receptor (Homo sapiens (Human), UniProt P08172); assay: Off-target binding, M2
DOR opiate receptor = DOR opiate receptor (Homo sapiens (Human), UniProt P41143); assay: Off-target binding, DOR
DOR opiate receptor, sequence (P41143 whole entry): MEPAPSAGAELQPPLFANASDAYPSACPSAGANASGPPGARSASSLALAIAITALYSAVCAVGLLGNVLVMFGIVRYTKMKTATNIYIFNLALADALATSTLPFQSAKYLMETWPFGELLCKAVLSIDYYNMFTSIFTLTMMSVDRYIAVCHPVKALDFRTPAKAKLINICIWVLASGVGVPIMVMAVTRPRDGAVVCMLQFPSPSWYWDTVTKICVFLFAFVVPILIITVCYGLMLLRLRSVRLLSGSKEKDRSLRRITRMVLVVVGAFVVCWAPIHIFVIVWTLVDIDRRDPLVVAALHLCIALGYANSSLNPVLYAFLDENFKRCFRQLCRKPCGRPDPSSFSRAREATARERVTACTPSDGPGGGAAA

r Sigma 2 = r Sigma 2 (Rattus norvegicus (Rat), UniProt Q5U3Y7); assay: Off-target binding, Sigma-2; conditions: for Ki: off-target binding; for Interaction at Sigma-2: 10 μM
r Sigma 2, sequence (Q5U3Y7 whole entry): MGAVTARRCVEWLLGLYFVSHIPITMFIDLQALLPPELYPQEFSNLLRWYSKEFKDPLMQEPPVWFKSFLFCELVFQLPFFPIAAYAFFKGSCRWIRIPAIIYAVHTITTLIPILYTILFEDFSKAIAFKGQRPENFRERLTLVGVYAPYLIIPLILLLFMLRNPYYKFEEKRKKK
Description: as §1

PBR = PBR (Homo sapiens (Human), UniProt P30536); assay: Off-target binding, PBR; conditions: for Ki: off-target binding; for Interaction at PBR: 10 μM
PBR, sequence (P30536 whole entry, species assumed): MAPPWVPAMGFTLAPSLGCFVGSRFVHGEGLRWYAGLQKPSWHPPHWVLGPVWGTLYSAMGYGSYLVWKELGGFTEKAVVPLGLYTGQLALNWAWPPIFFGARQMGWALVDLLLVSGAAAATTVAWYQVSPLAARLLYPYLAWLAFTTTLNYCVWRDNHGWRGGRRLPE
Description: as §1

mA1AR = mA1AR (Mus musculus (Mouse), UniProt Q60612); assay: Competition binding at mA1AR, HEK293 cell membranes; conditions: read-out: A1AR % inhibition, mouse data (m)
mA1AR, sequence (Q60612 whole entry): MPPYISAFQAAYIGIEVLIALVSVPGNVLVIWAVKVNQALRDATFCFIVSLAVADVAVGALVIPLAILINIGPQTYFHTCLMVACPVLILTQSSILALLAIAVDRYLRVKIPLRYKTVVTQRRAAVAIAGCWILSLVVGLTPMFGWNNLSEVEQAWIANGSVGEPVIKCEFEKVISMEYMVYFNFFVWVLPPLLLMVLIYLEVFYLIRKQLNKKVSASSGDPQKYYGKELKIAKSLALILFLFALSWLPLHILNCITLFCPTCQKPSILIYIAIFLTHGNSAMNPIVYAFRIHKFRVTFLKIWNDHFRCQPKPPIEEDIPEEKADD

mA2AAR = mA2AAR (Mus musculus (Mouse), UniProt Q60613); assay: Competition binding at mA2AAR, HEK293 cell membranes; conditions: read-out: A2AAR % inhibition, mouse data (m) (converted)
mA2AAR, sequence (Q60613 whole entry): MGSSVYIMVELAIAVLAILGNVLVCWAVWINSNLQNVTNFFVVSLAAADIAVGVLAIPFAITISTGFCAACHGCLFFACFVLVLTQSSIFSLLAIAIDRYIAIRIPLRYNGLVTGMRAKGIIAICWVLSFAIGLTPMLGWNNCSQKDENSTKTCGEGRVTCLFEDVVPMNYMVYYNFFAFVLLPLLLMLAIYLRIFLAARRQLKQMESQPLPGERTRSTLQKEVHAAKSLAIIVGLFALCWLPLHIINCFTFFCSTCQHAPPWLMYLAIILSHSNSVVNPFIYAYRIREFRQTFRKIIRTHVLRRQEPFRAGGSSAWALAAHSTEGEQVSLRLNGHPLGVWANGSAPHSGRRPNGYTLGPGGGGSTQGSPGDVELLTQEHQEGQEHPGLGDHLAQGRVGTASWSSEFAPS

[5] = tested on: chronic constriction injury model of neuropathic pain; assay: CCI model of neuropathic pain, reversal of mechano-allodynia; type: in vivo, mice; conditions: for Max. effect Emax (% ± SEM) / Time of peak protection: ipsilateral hind paw; for Efficacy in reversing NP in vivo (of full reversal at peak effect) / Duration of action: CCI model
r Sigma 1 = r Sigma 1 (Rattus norvegicus (Rat), UniProt Q9R0C9); assay: Off-target binding, Sigma-1; conditions: 10 μM
r Sigma 1, sequence (Q9R0C9 whole entry): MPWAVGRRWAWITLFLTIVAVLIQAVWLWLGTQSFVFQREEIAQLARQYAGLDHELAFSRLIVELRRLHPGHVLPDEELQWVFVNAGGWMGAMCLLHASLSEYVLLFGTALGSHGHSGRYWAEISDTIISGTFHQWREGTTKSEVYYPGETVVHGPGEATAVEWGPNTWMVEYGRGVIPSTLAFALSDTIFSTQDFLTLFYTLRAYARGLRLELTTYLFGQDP
Description: as §1

[6] = tested on: muscarinic, adrenergic, dopamine, GABA, histamine, opiate, serotonin receptors and transporters; assay: Off-target binding panel (receptors and transporters of Table 5); conditions: for Interactions at other receptors of the off-target panel: 10 μM
Description: as §1

[7] = tested on: 5 CYP isozymes (1A2, 2C9, 2C19, 2D6, 3A4); assay: Inhibition of 5 CYP isozymes; type: in vitro ADME
[8] = Stability in simulated fluids (gastric, intestinal); type: in vitro ADME
Description: In vitro stability parameters for selected compounds are set forth in Table 6, in accordance with an embodiment of the invention.

Sprague Dawley rats = assay: Toxicity of MRS5698 dosed by gavage; type: in vivo, rat; conditions: up to 150 mg/kg by gavage
Protocol: The formulation was dosed at up to 150 mg/kg by gavage to Sprague Dawley rats.

human DAT = human DAT (Homo sapiens (Human), UniProt Q01959); assay: Radioligand ([3H]WIN35428) binding at the dopamine transporter; conditions: for Ki: off-target binding
human DAT, sequence (Q01959 whole entry): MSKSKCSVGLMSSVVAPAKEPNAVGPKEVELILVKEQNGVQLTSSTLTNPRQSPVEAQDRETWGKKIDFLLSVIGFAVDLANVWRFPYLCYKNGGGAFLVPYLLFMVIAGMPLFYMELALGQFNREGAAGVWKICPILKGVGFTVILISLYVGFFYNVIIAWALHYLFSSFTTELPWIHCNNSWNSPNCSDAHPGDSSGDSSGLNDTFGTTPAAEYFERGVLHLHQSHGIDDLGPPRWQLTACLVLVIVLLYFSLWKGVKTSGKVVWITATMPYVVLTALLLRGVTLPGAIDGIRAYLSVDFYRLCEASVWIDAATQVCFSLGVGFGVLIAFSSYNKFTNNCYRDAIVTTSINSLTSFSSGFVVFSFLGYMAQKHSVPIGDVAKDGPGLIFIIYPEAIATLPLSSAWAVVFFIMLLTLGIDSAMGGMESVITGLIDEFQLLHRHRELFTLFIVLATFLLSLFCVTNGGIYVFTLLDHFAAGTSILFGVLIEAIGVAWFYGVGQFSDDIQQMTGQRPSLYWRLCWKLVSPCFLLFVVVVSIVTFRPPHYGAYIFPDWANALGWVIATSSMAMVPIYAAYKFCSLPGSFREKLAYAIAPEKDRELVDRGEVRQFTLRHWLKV

Structure (SMILES): CNC(=O)[C@@]12C[C@@H]1[C@@H](n1cnc3c(/C=C(\O)c4ccc(C(C)(C)C)cc4)nc(C#Cc4ccc(C(C)(C)C)cc4)nc31)C(O)C2O (stereo in doubt) [Compound 40, (1S,2S,3R,4R,5S)-4-(6-((Z)-2-(4-(tert-Butyl)phenyl)-2-hydroxyvinyl)-2-((4-(tert-butyl)phenyl)ethynyl)-9H-purin-9-yl)-2,3-dihydroxy-N-methylbicyclo[3.1.0]hexane-1-carboxamide]
- inhibition at 10 µM (hA1AR): 16 ± 5%
- inhibition at 10 µM (hA2AAR): 16 ± 7%
- Ki (hA3AR): 78.5 ± 19.8 nM
- Ki (mA3AR): 136 ± 9 nM

Structure (SMILES): CN1CC[C@]23c4c5ccc(O)c4O[C@H]2[C@@H](O)C=C[C@H]3[C@H]1C5 [morphine]
- Reversal of mechano-allodynia by morphine alone on daily dosing ([1]; given daily over 25 days): loses its ability to reverse mechano-allodynia
- Reversal of mechano-allodynia by morphine alone ([1]; s.c. injection at day 7): near-to-maximal reversal of mechano-allodynia

Structure (SMILES): CNC(=O)[C@H]1O[C@@H](n2cnc3c(NCc4cccc(I)c4)ncnc32)[C@H](O)[C@@H]1O [IB-MECA]
- Effect on opioid dependence (morphine-dependent rats): block opioid dependence

Structure (SMILES): CNC(=O)C12CC1C(n1cnc3c(NCc4cccc(Cl)c4)nc(C#Cc4ccc(F)c(F)c4)nc31)C(O)C2O (single isomer, unassigned) [MRS5698]
- Ki ([2]; read-out: Ki at α2B): 2.9 µM and 4.8 µM
- Ki ([2]; read-out: Ki class at α2B): 1 to 10 µM
- Ki ([3]; read-out: Ki at α2C): 2000 nM
- Ki ([3]; read-out: Ki class at α2C): 1000 to 10000 nM
- Ki ([4]; read-out: Ki at β3): 5.8 µM
- Ki ([4]; read-out: Ki class at β3): 1 to 10 µM
- Ki (h5HT1A; read-out: Ki at 5HT1A): 7.6 µM
- Ki (h5HT1A; read-out: Ki class at 5HT1A): 1 to 10 µM
- Ki (h5HT2B; read-out: Ki at 5HT2B): 2600 nM
- Ki (h5HT2B; read-out: Ki class at 5HT2B): 1000 to 10000 nM
- Ki (h5HT2C; Ki at 5HT2C): 5.8 µM
- Ki (h5HT2C; Ki class at 5HT2C): 1 to 10 µM
- Ki (hH4 histamine receptor; read-out: Ki at H4): 9.4 µM
- Ki (hH4 histamine receptor; read-out: Ki class at H4): 1 to 10 µM
- Ki (hM2 muscarinic receptor; read-out: Ki at M2): 5.4 µM
- Ki (hM2 muscarinic receptor; read-out: Ki class at M2): 1 to 10 µM
- Ki (DOR opiate receptor; read-out: Ki at DOR): 2500 nM
- Ki (DOR opiate receptor; read-out: Ki class at DOR): 1000 to 10000 nM
- Ki (r Sigma 2; read-out: Ki at Sigma-2 (σ2)): 910 nM
- Ki (r Sigma 2; read-out: Ki class at σ2): < 1000 nM
- Ki (PBR; read-out: Ki at PBR): 340 nM
- Ki (PBR; read-out: Ki class at PBR): < 1000 nM

Structure (SMILES): CNC(=O)[C@@]12C[C@@H]1[C@@H](n1cnc3c(NC)nc(C#Cc4cnn(C)c4)nc31)[C@H](O)[C@@H]2O [Compound 18, (1S,2R,3S,4R,5S)-2,3-Dihydroxy-N-methyl-4-(2-((1-methyl-1H-pyrazol-4-yl)ethynyl)-6-(methylamino)-9H-purin-9-yl)bicyclo[3.1.0]hexane-1-carboxamide]
- inhibition at 10 µM (hA1AR): 35%
- inhibition at 10 µM (hA2AAR): 12 ± 6%
- inhibition at 10 µM (mA1AR): 72%
- inhibition at 10 µM (mA2AAR): 16%
- Max. effect Emax (% ± SEM) ([5]; 3 μmol/kg p.o., mice): 87.3 ± 12.7%
- Time of peak protection ([5]; 3 μmol/kg p.o., mice): 1 h
- Efficacy in reversing NP in vivo (of full reversal at peak effect) [5]: ~100%
- Interaction at Sigma-1 (r Sigma 1): weak interactions
- Interaction at Sigma-2 (r Sigma 2): weak interactions
- Interaction at PBR (PBR): weak interactions
- Off-target effects compared with MRS5698 and MRS5676 [6]: significantly fewer off-target effects
- Interactions at other receptors of the off-target panel [6]: No interactions

Structure (SMILES): CNC(=O)[C@]12CC1[C@@H](n1cnc3c(NC)nc(C#Cc4ccc(Br)s4)nc31)[C@H](O)C2O (stereo partly drawn) [compound 100]
- IC50 [7]: > 7 µM

Structure (SMILES): CNC(=O)[C@@]12C[C@@H]1[C@@H](n1cnc3c(NC)nc(C#Cc4ccco4)nc31)[C@H](O)[C@@H]2O [Compound 17, (1S,2R,3S,4R,5S)-4-(2-(Furan-2-ylethynyl)-6-(methylamino)-9H-purin-9-yl)-2,3-dihydroxy-N-methylbicyclo[3.1.0]hexane-1-carboxamide]
- inhibition at 10 µM (hA1AR): 30%
- inhibition at 10 µM (hA2AAR): 18 ± 9%
- Ki (hA3AR): 0.62 ± 0.06 nM
- Ki (mA3AR): 54 ± 11 nM
- inhibition at 10 µM (mA1AR): 59%
- inhibition at 10 µM (mA2AAR): 17%
- Effect at 3 h (% ± SEM) ([5]; 3 μmol/kg p.o., mice, 3 h): 27.6 ± 1.3%
- Max. effect Emax (% ± SEM) ([5]; 3 μmol/kg p.o., mice): 100 ± 0.0%
- Time of peak protection ([5]; 3 μmol/kg p.o., mice): 1 h
- Duration of action [5]: ~3 h
- Efficacy in reversing NP in vivo (of full reversal at peak effect) [5]: ~100%
- Interaction at Sigma-1 (r Sigma 1): weak interactions
- Interaction at Sigma-2 (r Sigma 2): weak interactions
- Interaction at PBR (PBR): weak interactions
- Off-target effects compared with MRS5698 and MRS5676 [6]: significantly fewer off-target effects
- Interactions at other receptors of the off-target panel [6]: No interactions
- half-life ([8]; simulated gastric fluid, read-out: Stability in simulated fluids (t1/2, min): Gastric): > 480 min
- half-life ([8]; simulated intestinal fluid, read-out: Stability in simulated fluids (t1/2, min): Intestinal): > 480 min

Structure (SMILES): CNC(=O)[C@@]12C[C@@H]1[C@@H](n1cnc3c(NCc4cccc(Cl)c4)nc(C#Cc4ccc(F)c(F)c4)nc31)C(O)[C@H]2O (stereo partly drawn) [MRS5698, reference compound]
- Findings after oral dosing (Sprague Dawley rats): No abnormal findings
- Interaction with DAT (human DAT): does not interact with DAT
- Interactions at other receptors of the off-target panel [6]: No interactions at other receptors
- Analgesic effect of the A3AR agonist dose per se ([1]; […]): no analgesic effects per se

Structure (SMILES): CNC(=O)[C@@]12C[C@@H]1[C@@H](n1cnc3c(NC)nc(C#Cc4cccs4)nc31)[C@H](O)[C@@H]2O [Compound 8, (1S,2R,3S,4R,5S)-2,3-Dihydroxy-N-methyl-4-(6-(methylamino)-2-(thiophen-2-ylethynyl)-9H-purin-9-yl)bicyclo[3.1.0]hexane-1-carboxamide]
- inhibition at 10 µM (hA1AR): 25%
- inhibition at 10 µM (hA2AAR): 20 ± 6%
- Ki (mA3AR): 43 ± 2 nM
- inhibition at 10 µM (mA1AR): 47%
- inhibition at 10 µM (mA2AAR): 3%
- Max. effect Emax (% ± SEM) ([5]; 3 μmol/kg p.o., mice): 100 ± 0.0%
- Time of peak protection ([5]; 3 μmol/kg p.o., mice): 1 h
- Duration of action [5]: ~3 h
- Efficacy in reversing NP in vivo (of full reversal at peak effect) [5]: ~100%
- Ki ([2]; read-out: Ki at α2B): 5.5 µM
- Ki (human DAT; read-out: Ki at DAT): 760 nM
- Ki (human DAT; read-out: Ki class at DAT): < 1000 nM
- Off-target effects compared with MRS5698 and MRS5676 [6]: significantly fewer off-target effects
- Interactions at other receptors of the off-target panel [6]: No interactions at other receptors
